Laboratory results published in patent publication US8093037B2, “Engineered microorganisms with enhanced fermentation activity” (Verdezyne, Inc., priority 2009, dated 2012).

B1: Escherichia coli: xylose isomerase of this donor organism, expressed in S. cerevisiae (protein, UniProt P00944 1-440, looked up)
Xylose isomerase: MQAYFDQLDRVRYEGSKSSNPLAFRHYNPDELVLGKRMEEHLRFAACYWHTFCWNGADMFGVGAFNRPWQQPGEALALAKRKADVAFEFFHKLHVPFYCFHDVDVSPEGASLKEYINNFAQMVDVLAGKQEESGVKLLWGTANCFTNPRYGAGAATNPDPEVFSWAATQVVTAMEATHKLGGENYVLWGGREGYETLLNTDLRQEREQLGRFMQMVVEHKHKIGFQGTLLIEPKPQEPTKHQYDYDAATVYGFLKQFGLEKEIKLNIEANHATLAGHSFHHEIATAIALGLFGSVDANRGDAQLGWDTDQFPNSVEENALVMYEILKAGGFTTGGLNFDAKVRRQSTDKYDLFYGHIGAMDTMALALKIAARMIEDGELDKRIAQRYSGWNSELGQQILKGQMSLADLAKYAQEHHLSPVHQSGRQEQLENLVNHYLFDK
B2: Clostridium thermosulfurogenes: xylose isomerase of this donor organism, expressed in S. cerevisiae (protein, UniProt P19148 1-439, looked up)
Xylose isomerase: MNKYFENVSKIKYEGPKSNNPYSFKFYNPEEVIDGKTMEEHLRFSIAYWHTFTADGTDQFGKATMQRPWNHYTDPMDIAKARVEAAFEFFDKINAPYFCFHDRDIAPEGDTLRETNKNLDTIVAMIKDYLKTSKTKVLWGTANLFSNPRFVHGASTSCNADVFAYSAAQVKKALEITKELGGENYVFWGGREGYETLLNTDMEFELDNFARFLHMAVDYAKEIGFEGQFLIEPKPKEPTKHQYDFDVANVLAFLRKYDLDKYFKVNIEANHATLAFHDFQHELRYARINGVLGSIDANTGDMLLGWDTDQFPTDIRMTTLAMYEVIKMGGFDKGGLNFDAKVRRASFEPEDLFLGHIAGMDAFAKGFKVAYKLVKDRVFDKFIEERYASYKDGIGADIVSGKADFRSLEKYALERSQIVNKSGRQELLESILNQYLFAE
B3: Bacillus subtilis: xylose isomerase of this donor organism, expressed in S. cerevisiae (protein, UniProt P0CI80 1-445, looked up)
Xylose isomerase: MAQSHSSSINYFGSANKVVYEGKDSTNPLAFKYYNPQEVIGGKTLKEHLRFSIAYWHTFTADGTDVFGAATMQRPWDHYKGMDLAKMRVEAAFEMFEKLDAPFFAFHDRDIAPEGSTLKETNQNLDMIMGMIKDYMRNSGVKLLWNTANMFTNPRFVHGAATSCNADVFAYAAAQVKKGLETAKELGAENYVFWGGREGYETLLNTDLKFELDNLARFMHMAVDYAKEIGYTGQFLIEPKPKEPTTHQYDTDAATTIAFLKQYGLDNHFKLNLEANHATLAGHTFEHELRMARVHGLLGSVDANQGHPLLGWDTDEFPTDLYSTTLAMYEILQNGGLGSGGLNFDAKVRRSSFEPDDLIYAHIAGMDAFARGLKVAHKLIEDRVFEDVIQHRYRSFTEGIGLEIIEGRANFHTLEQYALNHKSIKNESGRQEKLKAILNQYILEV
modifications: expressed in S. cerevisiae

Assay: Heterologous xylose isomerase expression in yeast (active yes/no)
Format: cell-based, Saccharomyces cerevisiae
Conditions: xylose isomerase of donor organism expressed in engineered yeast (S. cerevisiae)

| Molecule | Active? (yes/no) |
| --- | --- |
| Actinoplanes missouriensis: xylose isomerase of this donor organism, expressed in S. cerevisiae | No |
| Bacteroides thetaiotaomicron: xylose isomerase of this donor organism, expressed in S. cerevisiae | Yes |
| Streptomyces rubiginosus: xylose isomerase of this donor organism, expressed in S. cerevisiae | No |
| Thermus thermophilus: xylose isomerase of this donor organism, expressed in S. cerevisiae | Yes |
| B1 | No |
| B2 | No |
| B3 | No |
